Laboratory results: patent publication US5877154A, “Pharmaceutical compositions for the treatment or prevention of disorders in the eye” (Ramot University Authority for Applied Research and …, priority 1992, dated 1999)

How the values were obtained:
[1] = tested on: leukotriene B4 (LTB4) production in the corneas; assay: LTB4 production in corneas of rats exposed to UV irradiation; type: in vivo, albino rats; conditions: dexamethasone 4 mg/kg per day, melanotropin 10 μg/kg per day, irradiated untreated 2.47±0.8
Description: The antinflammatory activity of melanotropin in the eye was measured by the ability of the melanotropin to inhibit the production of the leukotriene (LTB4) which is produced during the inflammatory response elicited by noxious stimulae to the cornea.
The ability of melanotropin to inhibit an inflammatory response was determined in corneas of albino rats subjected to UV irradiation. The parameter used to measure the inflammatory response was the amount of production of leukotriene B4--known for its modulatory action in inflammation.
One eye of albino rats of either sex weighing 200-250 gm was exposed to UV irradiation (200-400 nm) for 15 min. daily for 4 consecutive days. The other contralateral eye of each rat was not exposed to the irradiation and served as a control. […]
In the treated group of animals, the specific treatment began each day within one hour after the UV exposure. […] At the end of the incubation, a sample was obtained from the medium and the contents of the leukotrien B4 (LTB4) was determined by a radioimmunoassay (RIA) technique using a New England Nuclear Kit with a specific antibody against LTB4.

[2] = tested on: prostaglandin type E2 (PGE2) production; assay: PGE2 production in eyes of rats exposed to UV irradiation; type: in vivo, albino rats; conditions: dexamethasone 4 mg/kg per day, melanotropin 10 μg per day
Description: One eye of albino rats of either sex weighing 200-250 gm was exposed to UV irradiation (200-400 nm) for 15 min. daily for 4 consecutive days. The other contralateral eye of each rat was not exposed to the irradiation and served as a control.
The animals were divided into three groups (8 rats in each group) as follows: (1) untreated; (2) rabbits exposed to UV irradiation and a daily intermuscular (i.m.) injection of 4 mg/kg dexamethasone; and (3) rabbits exposed to UV irradiation and treated with a daily injection (i.m.) of 10 μg/kg of melanotropin.
In the treated group of animals, the specific treatment began each day within one hour after the UV exposure. The animals were sacrificed two days following the last UV irradiation and the eyes were frozen at -70° C. The cornea was disected and incubated in a shaking bath at 37° C. for 40 mins. in a Heppes buffer (pH=7.4). At the end of the incubation, a sample was obtained from the medium and the contents of the leukotrien B4 (LTB4) was determined by a radioimmunoassay (RIA) technique using a New England Nuclear Kit with a specific antibody against LTB4.
The production of prostaglandin type E2 (PGE2) was also measured in the eyes of three groups of rats. The amount of PGE2 in the eyes exposed to UV irradiation was higher than in the nonirradiated control eyes (4.1±1.9 pg/mg weight as compared to 1.8±0.3 pg/mg weight, p=0.001).

[3] = tested on: human skin fibroblast (HSF) cell culture; assay: 3H-Thymidine uptake by human skin fibroblast cell culture; type: cell-based; conditions: bFGF 9 ng/ml; EGF 10 ng/ml; melanotropin 10^-6 M and 10^-7 M; serum free medium, FIG. 2
Description: HSF cells were grown in DMEM (Dulbeccos Modified Eagles Media) supplemented with 10% heat inactivated fetal calf serum, 2 mM glutamine and antibiotics (100 U/mi penicillin G, 0.25 mg/ml amphotericin B and 0.1 mg/ml streptomycin) (Biological Industries, Beth Haemek, Israel) in 56.7 cm^2 tissue culture flasks (Nunc, Roskilde, Denmark) at 37° C. in a 10% CO2 humidified atmosphere incubator. When the cells reached confluency, they were tripsinized by incubation with 0.083% tripsine (Biological Industries, Beth HaEmek, Israel) for a few minutes at 37° C. and seeded (please complete). The growth medium of the cells with or without drugs was changed twice a week.
The wells were then divided into five groups and a different medium was added to the wells of each group as described in Example 1. The medium added to each of the five groups was: (1) serum free medium containing melanotropin 10^-6 M; (2) serum free medium containing melanotropin 10^-7 M; (3) serum free medium containing EGF 10 ng/ml; (4) serum free medium containing bFGF 9 nn/ml; and (5) serum free medium only.
The degree of ^3 H-Thymidine uptake by human skin fibroblast was determined as described in Example 1.

[4] = tested on: bovine vascular endothilial cells (ABAE); assay: 3H-Thymidine uptake by bovine vascular endothelial cells; type: cell-based; conditions: bFGF 9 ng/ml; EGF 10 ng/ml; melanotropin 10^-6 M and 10^-7 M; single set of experiments
Description: ABAE cells were grown in DMEM (Dulbeccos Modified Eagles Media) supplemented with 5% heat inactivated fetal calf serum, 5% heat inactivated newborn calf serum, 2 mM glutamine and antibiotics (100 U/ml penicillin G, 0.25 mg/ml amphotericin B and 0.1 mg/ml streptomycin) (all from Biological Industries, Beth HaEmek, Israel) in 56.7 cm^2 tissue culture dishes (Nunc, Roskilde, Denmark) at 37° C. in a humidified atmosphere incubator with 10% CO2.
The cultures were supplemented every other day with 10^-9 ng/ml of bFGF until they reached confluency.
The cells were then trypsinized by adding 0.041% trypsin (Biological Industries, Beth HaEmek, Israel) for a few minutes at 37° C. The cells were then diluted by a factor of six and plated in microwell plates. Growth medium was changed twice a week.
The cells were then divided into five groups as described in Examples 1 and 2 and a different medium was added to the wells of each group as follows: (1) serum free medium containing melanotropin 10^-6 M; (2) serum free medium containing melanotropin 10^-7 M; (3) serum free medium containing EGF 10 ng/ml; (4) serum free medium containing bFGF 9 ng/ml; and (5) serum free medium alone.
The degree of ^3 H-Thymidine uptake by the cells was again determined as described in Examples 1 and 2.

bovine RPE cells = assay: wound closure technique: proliferation and migration of RPE cells over denuded area; type: cell-based; conditions: bFGF 10^-10 mg/ml
Description: The ability of RPE cells to proliferate and migrate over denuded areas was measured using a slight modification of the previously known technique termed "wound closure technique" (Jumblatt and Neufeld, 1986).
In this example bovine RPE cells were grown as described in Example 1 and plated in microwell plates containing 16 ml wells. When the cultures reached confluency, sloughing of the cells from a centrally located area in each well was carried out using a very sharp blade. In order to remove non adherent cells, each well was rinsed with a 1 ml Earle's balanced salt solution (EBSS: Gibco). The cultures were photographed at the time of the sloughing and at 12, 24 and 48 hours after the sloughing procedure. In this way the size of the denuded area in the culture at the time of the sloughing was documented and could be compared later to the same cultures at different time periods after the denudation.
The ability of the bovine RPE cells to proliferate and migrate over the denuded area in the well was determined by analyzing the covered and uncovered area in the photographs of the cultures taken at different time periods as described in Jumblatt & Neufeld (ibid). The rate of the "wound" closure was calculated as mm^2 per hour or as the percentage of the covered area in the culture wells at a specific time period.
The bovine RPE cell cultures were divided into six groups. […]

Compound | LTB4 produced by the corneas of the UV irradiated eyes [1] [pg/mg weight] | PGE2 produced by UV irradiated corneas compared with irradiated but untreated corneas [2] | 3H-Thymidine uptake of human skin fibroblasts as compared to cells treated with medium alone [3] | 3H-Thymidine uptake by the bovine vascular endothilium cells [4] | cell covered area in the wells (bovine RPE cells; 12 hours after the wounding) [mm^2] | cell covered area in the culture (bovine RPE cells; 48 hours after addition, p<0.05 vs medium alone) [mm^2]
C[C@@H]1C[C@H]2[C@@H]3CCC4=CC(=O)C=C[C@]4(C)[C@@]3(F)[C@@H](O)C[C@]2(C)[C@@]1(O)C(=O)CO [dextamethasone, dexamethasone] | 9.38±2.4 | lower than the amount of the PGE2 in the irradiated but untreated rats' corneas | – | – | – | –
EGF: Epidermal growth factor, comparison growth factor | – | – | did not cause any increase | significant induction | – | –
bFGF: basic fibroblast growth factor, comparison growth factor | – | – | five-fold increase | significant induction | 11.4±1.1 | 21.1±0.7
